Assay results as given in patent publication US20200278355A1, “CONJUGATED PROTEINS AND USES THEREOF” (THE SCRIPPS RESEARCH INSTITUTE, priority 2017, published 2020).

Experiments:
[1] = target: T1, FLAG-NR0B1 (WT) (Homo sapiens, UniProt P51843); assay: Gel-based BPK-29yne labeling of NR0B1 and competition in HEK293T cells; format: cell-based; details: 3 h pre-treatment, then BPK-29yne 30 min
T1 construct: expressed in transfected cells; host or cells: HEK-293T, transient, pRK5-based vector
Protocol: 4×10^6 HEK-293T cells were seeded in poly-L-lysine coated 10 cm plates and transfected the next day with 5 μg of FLAG-NR0B1, FLAG-NR0B1-C274V, or FLAG-METAP2 cDNA in a pRK5-based expression vector. 48 h after transfection, cells were treated with indicated concentrations of BPK-29 or control compound BPK-27 for 3 h at 37° C. in DMEM containing 10% FBS and supplements as described in Cell Culture. BPK-29yne (5 μM) was then added and incubated for an additional 30 min at 37° C. FLAG immunoprecipitates were prepared as described above and following washes, the FLAG resin was resuspended in PBS (100 μL). To each sample, 12 μL of a freshly prepared “click” reagent mixture was added to conjugate the fluorophore to probe-labeled proteins. […] Samples were boiled for 5 min and proteins were resolved by SDS-PAGE (10% acrylamide), and visualized by in-gel fluorescence on a Bio-Rad ChemiDoc MP flatbed fluorescence scanner. Samples were also analyzed by immunoblotting. Recombinantly expressed FLAG-tagged protein levels were determined with the FLAG antibody (Sigma). Gel fluorescence and imaging was processed using Image Lab (v 5.2.1) software.

[2] = system: protein targets of BPK-29 in NSCLC cells (H460); assay: ABPP-SILAC competition of BPK-29yne labeling in H460 cells, proteome-wide; format: cell-based, human; details: beyond targets mapped by isoTOP-ABPP
Protocol: Isotopically labeled H460 cell lines were generated as described above. Light and heavy cells were treated with compounds (20 μM) or DMSO, respectively, for 3 h, followed by labeling with the BPK-29yne (5 μM) for 30 min. Cells were washed once ice-cold PBS and lysed in 1% Triton 100-X dissolved in PBS with protease inhibitors (Sigma) by sonication. Lysate was adjusted to 1.5 mg ml^−1 in 500 μL. Samples were conjugated by CuAAC to Biotin-PEG4-azide (5 μL of 10 mM stocks in DMSO, final concentration=100 μM). CuAAC “click” mix contained TCEP, TBTA ligand and CuSO4 as detailed for isoTOP-ABPP sample preparation. Samples were further processed as detailed in: isoTOP-ABPP streptavidin enrichment and isoTOP-ABPP trypsin TEV digestion with the following exception: after overnight incubation at 37° C. with trypsin, tryptic digests were separated from the beads with Micro Bio-Spin columns (Bio-Rad) by centrifugation (1,000×g, 1 min). Beads were rinsed once with water (200 μL) and combined with tryptic digests. […]
The MS2 spectra data were extracted and searched using RAW Convertor and ProLuCID algorithm as described in isoTOP-ABPP peptide and protein quantification. […] Ratios of heavy/light (DMSO/test compound) peaks were calculated using in-house CIMAGE software. […] The mean R values and standard deviation for multiple biological experiments were calculated from the average ratios from each replicate. […]

T1 sequence (P51843 whole entry): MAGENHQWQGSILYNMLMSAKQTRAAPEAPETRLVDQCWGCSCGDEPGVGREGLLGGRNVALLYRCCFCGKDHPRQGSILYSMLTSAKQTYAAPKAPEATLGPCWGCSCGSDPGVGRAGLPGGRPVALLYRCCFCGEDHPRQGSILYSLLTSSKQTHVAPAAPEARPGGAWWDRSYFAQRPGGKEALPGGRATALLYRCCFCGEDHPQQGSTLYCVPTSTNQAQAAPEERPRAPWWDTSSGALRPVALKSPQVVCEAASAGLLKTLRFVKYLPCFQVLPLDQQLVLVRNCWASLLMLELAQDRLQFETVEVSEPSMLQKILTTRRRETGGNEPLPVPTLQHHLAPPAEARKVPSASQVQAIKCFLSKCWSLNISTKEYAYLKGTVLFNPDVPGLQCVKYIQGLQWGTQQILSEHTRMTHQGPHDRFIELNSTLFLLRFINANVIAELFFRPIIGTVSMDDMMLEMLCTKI

O=C(c1ccc(N2CCOCC2)cc1)N1CCCC(N(Cc2ccccc2)C(=O)CCl)CC1 (centres unmarked) [BPK-29, N-benzyl-2-chloro-N-(1-(4-morpholinobenzoyl)azepan-4-yl)acetamide]
blockade of BPK-29yne labeling of NR0B1 by pre-treatment [1]: blocked by pre-treatment with BPK-29 in a concentration dependent manner | further proteins engaged, found with the BPK-29yne probe [2]: seven
